Experiments:
Test in all cases: relative viability (nuclei count vs DMSO), 5 days (fraction); higher = more cells survive
Zosuquidar + Dasatinib = compound: O[C@@H](COc1cccc2ncccc12)CN1CCN([C@@H]2c3ccccc3[C@@H]3[C@H](c4ccccc42)C3(F)F)CC1 [Zosuquidar] + Cc1nc(Nc2ncc(C(=O)Nc3c(C)cccc3Cl)s2)cc(N2CCN(CCO)CC2)n1 [Dasatinib] (partner 0.075 µM)
Procedure, shortened: (§1)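 Lung cancer cell lines in 1536-well plates got either a single drug or a fixed anchor-drug dose together with five library-drug doses (not always all listed) in √10 steps, by pin tool, on the day after seeding. Nuclei were counted after 5 days, and relative viability is the treated-to-vehicle ratio of nuclei counts. Values are medians of duplicate plates.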

Zosuquidar + Palbociclib = compound: O[C@@H](COc1cccc2ncccc12)CN1CCN([C@@H]2c3ccccc3[C@@H]3[C@H](c4ccccc42)C3(F)F)CC1 [Zosuquidar] + CC(=O)c1c(C)c2cnc(Nc3ccc(N4CCNCC4)cn3)nc2n(C2CCCC2)c1=O [Palbociclib] (partner 0.5 µM)
Procedure, shortened: as §1

[1] = compound: COc1cc2nccc(Oc3ccc(NC(=O)C4(C(=O)Nc5ccc(F)cc5)CC4)cc3)c2cc1OC [Cabozantinib] + N=C(N)NC(=N)NCCc1ccccc1 [Phenformin] (partner 250 µM)
Procedure, shortened: as §1

Kobe2602 + Trametinib = compound: C1=CC(=CC=C1NC(=S)NNC2=C(C=C(C=C2[N+](=O)[O-])C(F)(F)F)[N+](=O)[O-])F [Kobe2602] + CC(=O)Nc1cccc(-n2c(=O)n(C3CC3)c(=O)c3c(Nc4ccc(I)cc4F)n(C)c(=O)c(C)c32)c1 [Trametinib] (partner 0.02 µM)
Procedure, shortened: as §1

With UMC-11 as the cell line, how does the relative viability (Zosuquidar + Dasatinib; first compound 0.01 µM) read?
The relative viability was 0.428.

And the relative viability (Zosuquidar + Dasatinib; first compound 0.03162 µM)?
The relative viability was 0.535.

And the relative viability (Zosuquidar + Dasatinib; first compound 0.1 µM)?
Its relative viability is 0.455.

And the relative viability (Zosuquidar + Dasatinib; first compound 0.3162 µM)?
The relative viability was 0.486.

What about the relative viability (Zosuquidar + Dasatinib; first compound 1 µM) of the same cell line?
Its relative viability is 0.518.

And the relative viability (Zosuquidar + Palbociclib; first compound 0.01 µM)?
The relative viability was 0.313.

What about the relative viability (Zosuquidar + Palbociclib; first compound 0.03162 µM) of the same cell line?
Its relative viability is 0.305.

And the relative viability (Zosuquidar + Palbociclib; first compound 0.1 µM)?
The relative viability was 0.338.

And the relative viability (Zosuquidar + Palbociclib; first compound 0.3162 µM)?
Its relative viability is 0.341.

What about the relative viability (Zosuquidar + Palbociclib; first compound 1 µM) of the same cell line?
The relative viability was 0.296.

What about the relative viability ([1]; first compound 0.02 µM) of the same cell line?
The relative viability was 0.309.

What about the relative viability ([1]; first compound 0.06325 µM) of the same cell line?
Its relative viability is 0.35.

And the relative viability ([1]; first compound 0.2 µM)?
Its relative viability is 0.335.

And the relative viability ([1]; first compound 0.6325 µM)?
Its relative viability is 0.32.

What about the relative viability ([1]; first compound 2 µM) of the same cell line?
Its relative viability is 0.331.

What about the relative viability (Kobe2602 + Trametinib; first compound 0.2 µM) of the same cell line?
The relative viability was 0.716.

What about the relative viability (Kobe2602 + Trametinib; first compound 0.6325 µM) of the same cell line?
Its relative viability is 0.683.

And the relative viability (Kobe2602 + Trametinib; first compound 2 µM)?
The relative viability was 0.751.

What about the relative viability (Kobe2602 + Trametinib; first compound 6.325 µM) of the same cell line?
Its relative viability is 0.747.

What about the relative viability (Kobe2602 + Trametinib; first compound 20 µM) of the same cell line?
The relative viability was 0.668.

From the supplement of paper PMC10307832
